Consider 14 compounds from publication PMC7828111, “In Search for Multi-Target Ligands as Potential Agents for Diabetes Mellitus and Its Complications—A Structure-Activity Relationship Study on Inhibitors of Aldose Reductase and Protein Tyrosine Phosphatase 1B” (Molecules, 2021).

Molecules are shown by their SMILES.

One data set addresses T1, human recombinant AR (Homo sapiens, UniProt P15121).
T1 construct: made in house; host or cells: E. coli BL21(DE3)pLysS
Put plainly: Inhibition of human recombinant AR, L-idose as substrate (NADPH oxidation at 340 nm). It is filed as biochemical. To be noted: for IC50: human recombinant AR, 2 mM L-idose as substrate, mean ± S.E.M; for Inhibition of human AR (in words): at concentrations up to 10 μM; for AR inhibitory potency relative to the corresponding acetic acid analogues 1, 2: less potent than acetic acid analogue, analogue data ref 5. As for the experimental part:
The human recombinant AR was expressed in BL21(DE3)pLysS E. coli cells and purified to electrophoretic homogeneity as previously described. The purified enzyme (specific activity 5.0 U/mg) was stored at −80 °C in 10 mM sodium phosphate buffer pH 7.0 containing 2 mM dithiothreitol and 30% (w/v) glycerol. AR activity was determined at 37 °C as previously described evaluating the decrease in absorbance at 340 nm linked to NADPH oxidation. […] One unit of enzyme activity is the amount that catalyzes the conversion of 1 μmol of substrate/min in the above assay conditions.
All compounds tested as aldose reductase inhibitors were dissolved in DMSO and added to the assay mixture containing 8 mU of purified AR. The reaction was started by addition of the substrate. The DMSO concentration in all the assays was kept constant at 0.5% (v/v) in order to avoid effects on AR activity.
The IC50 values were determined by nonlinear regression analysis using Prism GraphPad 6.0 fitting experimental data to the following equation:(1) vi/v0= Max−Min/1+( I/IC50)^slope +Min
In the equation, vi/v0, represents the ratio between the activity measured in the presence of the inhibitor and the activity measured in the absence of inhibitor; Max and Min represent the expected maximal and minimal value of the activity and were fixed at 1 and zero, respectively. Slope, which describes the steepness of curve in the transition region, was fixed at −1. For each compound, at least five different concentrations of inhibitor in the triplicate assay were analyzed.

The target in a further data set is T2, human recombinant PTP1B (Homo sapiens, UniProt P18031).
T2 sequence (P18031 1-435): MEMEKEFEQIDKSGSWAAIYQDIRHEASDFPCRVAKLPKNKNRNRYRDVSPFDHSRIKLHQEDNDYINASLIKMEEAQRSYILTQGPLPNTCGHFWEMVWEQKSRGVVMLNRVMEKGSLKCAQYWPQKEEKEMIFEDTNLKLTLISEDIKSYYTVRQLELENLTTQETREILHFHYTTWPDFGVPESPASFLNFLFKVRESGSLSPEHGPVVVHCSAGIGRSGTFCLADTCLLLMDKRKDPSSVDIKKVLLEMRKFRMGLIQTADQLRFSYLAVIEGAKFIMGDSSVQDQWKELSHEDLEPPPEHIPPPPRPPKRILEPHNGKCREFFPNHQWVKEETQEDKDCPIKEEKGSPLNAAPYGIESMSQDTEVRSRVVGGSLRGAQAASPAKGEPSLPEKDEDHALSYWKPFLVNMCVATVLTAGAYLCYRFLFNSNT
The data set can be described thus: Inhibition of human recombinant PTP1B, p-nitrophenyl phosphate as substrate. The format is biochemical. To be noted: for IC50: human recombinant PTP1B, mean ± S.E.M; for IC50 / remaining activity at 50 µM: pNPP as substrate; for remaining activity at 50 µM: residual activity, read-out: PTP1B % enzyme residual activity at the indicated concentration. How it is done:
PTP1B activity was determined as follow. […] After an appropriate interval time, the reaction was stopped diluting assay solution with 2 mL of KOH 0.1 M. The amount of p-nitrophenol released was determined measuring the absorbance of the solution at 400 nm using a spectrophotometer and a 1-cm optical pathlength (εmM of p-nitrophenol is 18). The IC50 value was determined measuring the pNPP hydrolysis rate in the presence of increasing inhibitor concentration. For each inhibitor, 15–16 different concentrations were used. All tests were carried out in triplicate and data obtained were normalized respect to control sample.

Another data set has as its system bovine lens AR. Also on record: method as in PMID 15781392. To be noted: glyceraldehyde as substrate; cited from earlier work.
Where [1] appears, read: residual activity, L-idose as substrate, read-out: AR % enzyme residual activity at the indicated concentration.

Consider `O=C(O)C=CCN1C(=O)SC(=Cc2cccc3ccccc23)C1=O` [5d, 4-{(5Z)-[5-(1-Naphtylmethylidene)-2,4-dioxothiazolidin-3-yl]}-2-butenoic acid], for which the melting point was in the range of 170 to 172 °C. At human recombinant AR, the half-inhibitory concentration (IC50) came out at 3.7 ± 0.2 µM. For the same compound, at human recombinant PTP1B, the IC50 came out at 40.3 ± 0.5 µM.
`O=C(O)CCN1C(=O)S/C(=C\c2cccc(Oc3ccccc3)c2)C1=O` [3a, 3-{(5Z)-[2,4-Dioxo-5-(3-phenoxyphenyl)methylidene]thiazolidin-3-yl}propanoic acid] came in with a melting point of 177 to 180 °C. In addition, the half-maximal inhibitory concentration (IC50) on human recombinant AR was determined as 11.9 ± 0.9 µM. At human recombinant PTP1B, the remaining activity at 50 µM was determined as 79%.
Compound `O=C(O)CCN1C(=O)S/C(=C\c2ccc(OCc3ccccc3)cc2)C1=O` [3d, 3-{(5Z)-[5-(4-Benzyloxyphenyl)methylidene]-2,4-dioxothiazolidin-3-yl}propanoic acid] came in with a melting point of 195 to 199 °C. In addition, the IC50 at human recombinant AR stood at 35.7 ± 3 µM. Also, the remaining activity at 50 µM at human recombinant PTP1B stood at 77%. In addition, the “Inhibition of human PTP1B by virtual screening hit (in words)” value on human recombinant PTP1B (in vitro evaluation of selected virtual hits, previously conducted) is “moderate capability to inhibit”.
`O=C(O)CCN1C(=O)S/C(=C\c2cccc(OCc3ccccc3)c2)C1=O` [3c, 3-{(5Z)-[5-(3-Benzyloxyphenyl)methylidene]-2,4-dioxothiazolidin-3-yl}propanoic acid] returned a melting point of 142 to 145 °C. Also, the IC50 at human recombinant AR amounted to 14.3 ± 1 µM. In addition, the remaining activity at 50 µM at human recombinant PTP1B came to 76%.
For the compound `O=C(O)C=CCN1C(=O)SC(=Cc2ccc(Oc3ccccc3)cc2)C1=O` [5b], the remaining activity at 10 µM on human recombinant AR (setting [1]) was 84%. In addition, the “Inhibition of human AR (in words)” value at human recombinant AR (L-idose as substrate) was “scarce inhibition”. For the same compound, the “Inhibitory activity towards bovine lens AR” value in the data set with bovine lens AR was “almost inactive”. For the same compound, the IC50 at human recombinant PTP1B was found to be 39.7 ± 0.1 µM.
In turn, `O=C(O)CCN1C(=O)/C(=C/c2ccc(Oc3ccccc3)cc2)SC1=S` [4b, 3-{(5Z)[4-Oxo-5-(4-phenoxyphenyl)methylidene-2-thioxothiazolidin-3-yl]}propanoic acid] returned a melting point of 218 to 219 °C. In addition, on human recombinant AR, the IC50 worked out at 7.6 ± 0.6 µM. Also, the half-maximal inhibitory concentration (IC50) on human recombinant PTP1B amounted to 29.5 ± 0.4 µM.
`O=C(O)CCN1C(=O)S/C(=C\c2ccc(Oc3ccccc3)cc2)C1=O` [3b, 3-{(5Z)-[2,4-Dioxo-5-(4-phenoxyphenyl)methylidene]thiazolidin-3-yl}propanoic acid] yielded a melting point of 198 to 202 °C. For the same compound, the IC50 at human recombinant AR is 43.8 ± 7.1 µM. The remaining activity at 50 µM on human recombinant PTP1B turned out to be 56%.
`O=C(O)C=CCN1C(=O)SC(=Cc2ccc(-c3ccccc3)cc2)C1=O` [5c]: the remaining activity at 5 µM at human recombinant AR (at 5 µM, residual activity, L-idose as substrate, read-out: AR % enzyme residual activity at the indicated concentration) was found to be 88%. Further, the “Inhibition of human AR (in words)” value on human recombinant AR (L-idose as substrate) is given as “scarce inhibition”. In addition, the “Inhibitory activity towards bovine lens AR” value with bovine lens AR was “almost inactive”. Besides, on human recombinant PTP1B, the IC50 stood at 34.8 ± 0.5 µM.
With `O=C(O)CCN1C(=O)/C(=C/c2cccc(OCc3ccccc3)c2)SC1=S` [4c, 3-{(5Z)-5-[(3-Benzyloxyphenyl)methylidene]-4-oxo-2-thioxothiazolidin-3-yl}propanoic acid], the figures for the half-maximal inhibitory concentration (IC50) on human recombinant AR and on human recombinant PTP1B were 3.8 ± 0.1 µM and 42.8 ± 0.7 µM, respectively.
On to `O=C(O)CCN1C(=O)S/C(=C\c2cccc(OCCc3ccccc3)c2)C1=O` [3e, 3-[(5Z)-2,4-Dioxo-{5-[3-(2-phenylethoxy)phenyl]methylidene}thiazolidin-3-yl]propanoic acid], for which the melting point lay within 130 to 133 °C. Further, on human recombinant AR, the IC50 turned out to be 27.9 ± 3.1 µM and the “AR inhibitory potency relative to the corresponding acetic acid analogues 1, 2” value is reported as “two orders of magnitude higher”. In addition, on human recombinant PTP1B, the remaining activity at 50 µM was 64%.
For the compound `O=C(O)CCN1C(=O)S/C(=C\c2ccc(OCCc3ccccc3)cc2)C1=O` [3f, 3-[(5Z)-2,4-Dioxo-{5-[4-(2-phenylethoxy)phenyl]methylidene}thiazolidin-3-yl]propanoic acid], the melting point lay in the range of 160 to 163 °C. Moreover, on human recombinant AR, the half-maximal inhibitory concentration (IC50) amounted to 50.2 ± 4.6 µM and the “AR inhibitory potency relative to the corresponding acetic acid analogues 1, 2” value is listed as “two orders of magnitude higher”. In addition, on human recombinant PTP1B, the remaining activity at 50 µM is 46%.
As to `O=C(O)C=CCN1C(=O)SC(=Cc2ccc3ccccc3c2)C1=O` [5e, 4-{(5Z)-[5-(2-Naphtylmethylidene)-2,4-dioxothiazolidin-3-yl]}-2-butenoic acid], the melting point lay in the range of 235 to 238 °C. Moreover, the remaining activity at 10 µM at human recombinant AR (setting [1]) worked out at 86%. On human recombinant AR (L-idose as substrate), the “Inhibition of human AR (in words)” value was “scarce inhibition”. For the same compound, the concentration for half-maximal inhibition (IC50) on human recombinant PTP1B turned out to be 37.1 ± 0.4 µM.
Take `O=C(O)C=CCN1C(=O)SC(=Cc2cccc(Oc3ccccc3)c2)C1=O` [5a]: the figures for the IC50 at human recombinant AR and at human recombinant PTP1B were 3.9 ± 0.2 µM and 42.1 ± 0.3 µM, respectively. Further, the “Inhibitory activity towards bovine lens AR” value in the data set on bovine lens AR is listed as “very scarce inhibitory activity”.
`O=C(O)CCN1C(=O)/C(=C/c2ccc(OCc3ccccc3)cc2)SC1=S` [4d, 3-{(5Z)-5-[(4-Benzyloxyphenyl)methylidene]-4-oxo-2-thioxothiazolidin-3-yl}propanoic acid] gave a melting point of 170 to 173 °C. Further, the IC50 on human recombinant AR is 8.4 ± 0.7 µM. Further, on human recombinant PTP1B, the half-inhibitory concentration (IC50) came to 34.9 ± 0.7 µM.
